Experimental data from PMC6112376, “Comprehensive Analyses and Prioritization of Tox21 10K Chemicals Affecting Mitochondrial Function by in-Depth Mechanistic Studies” (Environmental Health Perspectives, 2018).
Where two headings read alike, the source gives them in different places.

Columns and labels:
rat primary hepatocytes = test: MMP assay in rat primary hepatocytes; conditions: for IC50: read-out: MMP assays IC50 (µM) Rat Hepatocytes
HepG2 cells [1] = conditions: cited from earlier work
HepG2 cells [2] = conditions: for IC50: read-out: MMP assays IC50 (µM) HepG2
[3] = rat hepatocytes, mean ± SD of three experiments
[4] = read-out: MMP assays IC50 (µM) qHTS-HepG2
[5] = HepG2 cells, single number from one experiment
[6] = read-out: MMP assays IC50 (µM), qHTS-HepG2

Structure (SMILES) | MMP assays IC50 (µM) Rat Hepatocytes (rat primary hepatocytes; [3]) | MMP assays efficacy (%) Rat Hepatocytes (rat primary hepatocytes; [3]) | MMP assays efficacy (%) qHTS-HepG2 (HepG2 cells [1]) | IC50 (HepG2 cells [1]; [4]) [µM] | MMP assays efficacy (%) HepG2 (HepG2 cells [2]; [5]) | IC50 (HepG2 cells [2]; [5]) [µM] | IC50 (rat primary hepatocytes; [3]) [µM] | IC50 (HepG2 cells [1]; [6]) [µM] | IC50 (rat primary hepatocytes; Rattus norvegicus, Hepatocyte) [µM] | MMP assays IC50 (µM) HepG2 (HepG2 cells [2]) | MMP assays efficacy (%) HepG2 (HepG2 cells [2]) | MMP assays IC50 (µM) HepG2 (HepG2 cells [2]; [5]) | MMP assays IC50 (µM) qHTS-HepG2 (HepG2 cells [1])
O=C(c1ccccc1)c1cccc(O)c1 [Compound 3-Hydroxybenzophenone] | inactive | inactive | -87±9% | 27.7 | -86% | 39.8 |  |  |  |  |  |  | 
CC[C@H](NC(=O)c1cc(F)ccc1[N-]S(=O)(=O)c1cccc2cccnc12)c1ccccc1.[Na+] |  | -84±50% | -101±14% |  | -98% | 11.2 | 35.9 ± 20.2 | 4.42 ± 6.97 |  |  |  |  | 
CCC(=O)OCC(=O)[C@@]1(OC(=O)CC)[C@@H](C)C[C@H]2[C@@H]3CCC4=CC(=O)C=C[C@]4(C)[C@@]3(Cl)[C@@H](O)C[C@@]21C [Beclazone] |  | -89±79% | -103±9% | 23.7 ± 2.74 | -61% | 21.8 | 16.3 ± 20.6 |  |  |  |  |  | 
Cc1cc(N)c2cc(NC(=O)Nc3ccc4nc(C)cc(N)c4c3)ccc2n1.Cl.Cl [Aminoquinuride dihydrochloride] |  | inactive | -99±7% | 25 ± 4.09 | -90% | 27.5 |  |  |  |  |  |  | 
CC(C)(O)c1ccccc1CC[C@@H](SCC1(CC(=O)O)CC1)c1cccc(/C=C/c2ccc3ccc(Cl)cc3n2)c1 [Montelukast sodium] |  |  | -72±20% |  |  |  |  |  | 24.1 ± 9.54 | inactive | inactive |  | 
OC1CCCCCCCCCCC1 [Cyclododecanol] | inactive | inactive | -66±13% | 48.8 ± 3.84 | inactive |  |  |  |  |  |  | inactive | 
CCCOc1ccc2nc(NC(=O)OC)sc2c1 [Tioxidazole] |  | -65±43% | -70±6% |  | -62% | 15.5 | 13 ± 1.06 | 7.5 ± 1.75 |  |  |  |  | 
N=C1NC(=N)c2cc3ccccc3cc21 [1,3-Diiminobenz(f)isoindoline] |  | -68±18% | -82±11% | 11.1 ± 7.81 | -95% | 35.5 | 26.7 ± 23.6 |  |  |  |  |  | 
CC(C)[C@@H](C)/C=C/[C@@H](C)[C@H]1CC[C@H]2/C(=C/C=C3\C[C@@H](O)CC[C@@H]3C)CCC[C@]12C [Dihydrotachysterol] | inactive | inactive | -78±16% | 32.7 ± 1.32 | inactive |  |  |  |  |  |  | inactive | 
O=C(O)Cc1cc(I)c(Oc2cc(I)c(O)c(I)c2)c(I)c1 [3,3',5,5'-Tetraiodothyroacetic acid] |  | -110±24% | -87±2% | 45.8 ± 2.99 | -87% | 39 | 26.1 ± 2.13 |  |  |  |  |  | 
CC(=O)c1ccc2ccc3ccccc3c2c1 [Compound 3-Acetylphenanthrene] |  | -44±5% | -105±10% | 36.9 ± 13.7 | -105% | 56.2 | 42.2 ± 19.8 |  |  |  |  |  | 
CCCCCCCCCCCCCC[P+](CCCCCC)(CCCCCC)CCCCCC.[Cl-] [Trihexyltetradecylphosphonium chloride] |  | -91±44% | -113±11% |  | -101% | 0.89 | 30.3 ± 8.97 | 0.77 ± 0.35 |  |  |  |  | 
C[C@@H]1C[C@H]2[C@@H]3CCC4=CC(=O)C=C[C@]4(C)[C@@]3(F)[C@@H](O)C[C@]2(C)[C@@]1(O)C(=O)COC(=O)c1cccc(S(=O)(=O)[O-])c1.[Na+] [Dexamethazone metasulfobenzoate sodium] | inactive | inactive | inactive |  | inactive |  |  |  |  |  |  | inactive | inactive
CC(C)(C)OC(=O)c1ccc(O)cc1 [tert-Butyl 4-hydroxybenzoate] |  | -80±10% | -99±24% |  | -105% | 35.5 | 50.8 ± 9.48 | 25.3 ± 7.32 |  |  |  |  | 
